Data on 13 compounds can be found in publication PMC9997069 (Molecular Pharmaceutics, 2023).

Data set [1] concerns the target T1, HSA (Homo sapiens, UniProt P02768).
T1 construct: purchased Sigma-Aldrich
The note with it: cited from earlier work.

The conditions of data set [2]: cited from earlier work.
Data set [3] deals with BSA. The following applies: cited from earlier work.
Data set [4] deals with T2, human serum albumin (HSA) (Homo sapiens, UniProt P02768).
T2 construct: purchased Sigma-Aldrich
Kind of data set: Binding to HSA by Trp214 fluorescence quenching titration. The note with it: for n^c ± 2σ number of binding sites / Kd / n^u ± 2σ: HSA; for n^c ± 2σ number of binding sites: inner filter corrected. How it is done: The emission fluorescence intensity was collected at 320 nm to avoid the fluorescence emission of the drugs. […] The excitation and emission slits were fixed at 1 and 5 nm, respectively. The step and dwell times were 1 nm and 0.1 s, respectively.
Enthalpy (ΔH) and entropy (ΔS) changes were obtained from the van′t Hoff equation [drawing 6] 6 and free energy (ΔG) changes were calculated from [drawing 7] 7 The van’t Hoff plots are shown in Figure 9, and the corresponding thermodynamic parameters are collected in Table 2. […] Proton-releasing processes in protein–ligand interactions generally result in a positive enthalpy.[64]

Data set [5] has as its target T1, HSA. Kind of data set: Competitive binding experiments with warfarin (site 1) and ibuprofen (site 2). How it is done:
The HSA binding experiments were performed at 310 K using [HSA]:[warfarin] and [HSA]:[ibuprofen] ratios of 1. […] Synchronous fluorescence spectroscopy experiments were performed to analyze the changes in the microenvironment polarity around fluorescent residues of HSA. When the value of the intervals (Δλ) between the excitation and emission wavelengths is set at 15 nm, synchronous fluorescence spectra offer characteristic information on tyrosine residues.[61]−[63]

Data set [6] relates to PLK2 and PLK3. Further details: method as in PMID 21459796, PMID 21809214, PMID 19690138. The note with it: cited from earlier work.
Data set [7] has as its system cancer cell lines. Further details: method as in PMID 19690138. The note with it: tested cancer cell lines; cited from earlier work.
Data set [8] relates to panel of 48 other kinases. Further details: method as in PMID 21459796, PMID 21809214, PMID 19690138. The following applies: cited from earlier work.
The nature of data set [9]: Protonation equilibria by UV-vis pH titration with DFT assignment. The following applies: for pKa: aqueous solution. It counts as physicochemical.
The subject of data set [10] is multiple leukemia cell lines. Further details: method as in PMID 26478211. The note with it: cited from earlier work.
The subject of data set [11] is xenograft mouse models. More on the design: method as in PMID 26478211. The note with it: cited from earlier work.
[12] abbreviates: noncompartmental analysis, 1 hour infusion, 25 to 200 mg on day 1 and day 8 of a 21 day course.
Where [13] appears, read: HSA/drug complex, van't Hoff plot 298-310 K.
The mark [14] stands for this setting: equilibrium between spectroscopic species 1 (charge 0/+1) and 2 (charge +2).

Values joined by “and” are separate entries in the source; they are usually repeats but may differ in a detail not shown here. Identical values can stand only once. “Also recorded” adds a separate entry of the source. Like-named read-outs stand apart in the source and are kept apart here.

T1 sequence (P02768 25-609): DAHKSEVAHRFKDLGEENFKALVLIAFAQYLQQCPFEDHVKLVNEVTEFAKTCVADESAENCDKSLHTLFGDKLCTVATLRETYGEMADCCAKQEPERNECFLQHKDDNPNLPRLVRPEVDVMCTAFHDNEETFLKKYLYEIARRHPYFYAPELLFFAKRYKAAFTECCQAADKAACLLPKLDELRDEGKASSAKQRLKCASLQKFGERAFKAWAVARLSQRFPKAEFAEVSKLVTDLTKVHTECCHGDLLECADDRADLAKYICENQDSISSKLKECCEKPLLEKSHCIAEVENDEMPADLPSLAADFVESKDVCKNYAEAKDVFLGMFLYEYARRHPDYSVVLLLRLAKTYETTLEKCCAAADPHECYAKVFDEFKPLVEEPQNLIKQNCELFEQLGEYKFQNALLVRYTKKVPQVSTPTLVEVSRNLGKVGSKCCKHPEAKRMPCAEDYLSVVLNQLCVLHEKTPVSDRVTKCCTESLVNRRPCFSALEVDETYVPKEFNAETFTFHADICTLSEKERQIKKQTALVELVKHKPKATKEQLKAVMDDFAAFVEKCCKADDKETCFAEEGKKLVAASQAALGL
T2 sequence (P02768 25-609): as above

As to `CC[C@@H]1C(=O)N(C)c2cnc(Nc3ccc(C(=O)NC4CCN(C)CC4)cc3OC)nc2N1C1CCCC1` [BI-2536], the “ΔG^0” value in [1] (HSA/drug complex, 298 K) was “–33.6 kJ mol^–1”. In addition, the “ΔG^0” value in [1] (HSA/drug complex, 303 K) is “–36.0 kJ mol^–1”. For the same compound, in [1] (HSA/drug complex, 310 K), the “ΔG^0” value was “–39.2 kJ mol^–1”. Also, in data set [1] (HSA/drug complex), the “ΔH^0” value is 103.8 kJ mol^–1 and the “ΔS^0” value was 461.3 J K^–1 mol^–1. In data set [1], the “Ka^c binding constant to HSA” value is on record as 3.78 × 10^6 M^–1; the “Ka^u binding constant to HSA” value was 11.4 × 10^7 M^–1; the “n^c ± 2σ number of binding sites” value was 1.30 ± 0.09 and 1.22 ± 0.16 and 1.35 ± 0.16. The “terminal half-life (up to)” value in [2] (1 hour intravenous infusion, 50, 60 and 70 mg on days 1 and 3 of a 21 day course) was 20 to 30 h. Also, in data set [2], the volume of distribution is 751 to 2200 L. Further, in data set [2] (setting [12]), the half-life result was “around 25 hours”; the “half-life, max” value is 55.1 h; the “half-life, min” value was 18.6 h. Moreover, the terminal half-life in [2] (single intravenous infusion, 200 mg over 1 h) is recorded as 15.4 h.

With `C[C@@H](Oc1cc(-c2cnn(C3CCNCC3)c2)cnc1N)c1c(Cl)ccc(F)c1Cl` [Crizotinib], the “Ka^c binding constant” value in [3] (309 K, listed as crizotinib) is reported as 3.4 × 10^4 M^–1; in [3] (309 K), 3.43 × 10^4 M^–1.

Regarding `C#Cc1cccc(Nc2ncnc3cc(OCCOC)c(OCCOC)cc23)c1` [Erlotinib], the “Ka^c binding constant” value in data set [3] (307 K) was 3.44 × 10^2 M^–1.

For orientation: pKa means the negative logarithm of the acid dissociation constant. Lower therefore signals a stronger acid or weaker base. In the case of `C[C@@H](Oc1cc(-n2cnc3ccc(CN4CCN(C)CC4)cc32)sc1C(N)=O)c1ccccc1C(F)(F)F` [GSK461364], in data set [4] (310 K), the “binding constant to HSA, times lower than for RO3280” value is 25 times. Besides, the “n^c ± 2σ number of binding sites” value in data set [4] (298 K) is 1.19 ± 0.06; in data set [4] (303 K) it was 1.15 ± 0.03; in [4] (310 K) it was 1.11 ± 0.05. The Kd in [4] (298 K, pH 7.4, inner filter corrected, read-out: Ka^c binding constant (converted)) is 4.81 µM; in data set [4] (298 K, without inner filter corrections, read-out: log Ka^u ± 2σ (converted)) it was 0.871 µM; in [4] (303 K, pH 7.4, inner filter corrected, read-out: Ka^c binding constant (converted)), 8.26 µM; in [4] (303 K, without inner filter corrections, read-out: log Ka^u ± 2σ (converted)), 1.07 µM; in [4] (310 K, pH 7.4, inner filter corrected, read-out: Ka^c binding constant (converted)), 11.4 µM; in [4] (310 K, without inner filter corrections, read-out: Ka^u binding constant to HSA (converted)) it was 1.79 µM. The Kd in [5] (310 K, [HSA]:[warfarin] ratio of 1, 5 μM, read-out: binding constant to HSA in the presence of warfarin (converted)) is 1040 µM. Besides, the “n^u ± 2σ” value was 1.29 ± 0.10 in data set [4] (298 K, without inner filter corrections); 1.28 ± 0.05 in [4] (303 K, without inner filter corrections); 1.23 ± 0.06 in data set [4] (310 K, without inner filter corrections). Further, the “ΔG^0” value in data set [4] (HSA/drug complex, 298 K) is listed as “–30.22 kJ mol^–1”; in data set [4] (HSA/drug complex, 303 K), “–29.80 kJ mol^–1”; in data set [4] (HSA/drug complex, 310 K), “–29.20 kJ mol^–1”. Moreover, the “ΔH^0” value in [4] (setting [13]) is on record as “–55.61 kJ mol^–1”. Moreover, the “ΔS^0” value in [4] (setting [13]) is given as “–85.20 J K^–1 mol^–1”. Further, the “preferential binding site into HSA” value in data set [5] (competitive experiments with warfarin and ibuprofen) is given as “site 1; also recorded: site I”. In data set [6], the “selectivity for PLK1 than for PLK2 and PLK3” value is “at least 390 fold”. Further, in data set [7], the cell growth inhibition result is “causes cell growth inhibition in a high percentage of tested cancer cell lines”. Further, in [8], the “selectivity for PLK1 than for a panel of 48 other kinases” value is reported as 1000 fold. This compound also gave a pKa in data set [9] (setting [14]) of 1.4.

Take `C=CC(=O)N1CCC[C@@H](n2nc(-c3ccc(Oc4ccccc4)cc3)c3c(N)ncnc32)C1` [Ibrutinib]: in data set [1] (HSA, 310 K), the “Ka^c binding constant” value is reported as 7.2 × 10^3 M^–1 and the “ΔG^0” value is reported as “–25.09 kJ mol^–1”. Also, in [1] (HSA), the “ΔH^0” value is “–16.91 kJ mol^–1” and the “ΔS^0” value is on record as 26.44 J K^–1 mol^–1.

`Cc1ccc(F)c(NC(=O)Nc2ccc(-c3cccc4[nH]nc(N)c34)cc2)c1` [Linifanib]: in [3] (308 K), the “Ka^c binding constant” value is reported as 4.3 × 10^3 M^–1.

Consider `Cc1cc(Nc2cc(N3CCN(C)CC3)nc(Sc3ccc(NC(=O)C4CC4)cc3)n2)[nH]n1` [MK-0457], for which, in [1] (HSA, 310 K), the “Ka^c binding constant” value is 1.05 × 10^4 M^–1 and the “ΔG^0” value is “–23.02 kJ mol^–1”. For the same compound, in [1] (HSA), the “ΔH^0” value is on record as “–130.63 kJ mol^–1” and the “ΔS^0” value is recorded as “–343.89 J K^–1 mol^–1”.

On to `Cc1cc(C(=O)Nc2nc3cccc(Cl)c3n2[C@@H]2CCCCN(C(=O)/C=C/CN(C)C)C2)ccn1` [Nazartinib (EGF816), Nazartinib], for which, in [1] (HSA, 310 K), the “Ka^c binding constant” value is reported as 2.67 × 10^4 M^–1 and the “ΔG^0” value is reported as “–26.27 kJ mol^–1”. Also, in data set [1] (HSA), the “ΔH^0” value is recorded as “–3.22 kJ mol^–1” and the “ΔS^0” value was 74.36 J K^–1 mol^–1.

Turning to `CCOc1cc2ncc(C#N)c(Nc3ccc(OCc4ccccn4)c(Cl)c3)c2cc1NC(=O)/C=C/CN(C)C` [Neratinib], in data set [1] (HSA, 310 K), the “Ka^c binding constant” value was 2.25 × 10^5 M^–1.

Regarding `COc1cc(C(=O)NC2CCN(C)CC2)ccc1Nc1ncc2c(n1)N(C1CCCC1)CC(F)(F)C(=O)N2C` [RO3280], the “in vitro cellular potency” value in data set [10] was “high in vitro cellular potency”. Also, the antitumor activity entry in data set [11] is given as “significant level of antitumor activity”. For the same compound, the pKa was found to be 12.6 in [9] (setting [14]) and 3.8 in [9] (equilibrium to species with charge +3, acidic pH). In addition, the “charge state at the physiological pH” value in data set [9] (pH 7.4, aqueous solution) is “+2”.

For the compound `CNC(=O)c1cc(Oc2ccc(NC(=O)Nc3ccc(Cl)c(C(F)(F)F)c3)cc2)ccn1` [Sorafenib], in data set [1] (HSA, 305 K), the “Ka^c binding constant” value is 2.64 × 10^4 M^–1 and the “ΔG^0” value is “–25.8 kJ mol^–1”. Besides, in data set [1] (HSA), the “ΔH^0” value was “–28.2 kJ mol^–1” and the “ΔS^0” value was “–7.87 J K^–1 mol^–1”.

Turning to `COc1cc2c(Nc3ccc(Br)cc3F)ncnc2cc1OCC1CCN(C)CC1` [Vandetanib], in data set [1] (HSA, 303 K), the “Ka^c binding constant” value is 7.63 × 10^3 M^–1 and the “ΔG^0” value is “–22.56 kJ mol^–1”. In data set [1] (HSA), the “ΔH^0” value is “–6.57 kJ mol^–1” and the “ΔS^0” value is 52.76 J K^–1 mol^–1.

With `C[C@H](Cn1cnc2c(N)ncnc21)OCP(=O)(O)O` [tenofovir], in data set [1] (310 K), the “binding constant to HSA” value is listed as 5.7 × 10^4 M^–1.
